Legend:
Format in all cases: cell-based
Langerhans cells = assay: Differentiation of Langerhans cells from cord blood CD34+ cells (Example 4); details: D12; GM-CSF with TNF-α 2.5 ng/ml or RU 41740 10 μg/ml for 12 days
Excerpt: The stem cells are obtained after a passage of cord blood through a Ficoll gradient. The mononucleated CD34+ cells are purified by positive selection with an anti-CD34 monoclonal antibody (Immu 133.3, Immunotech Marseille, France). After purification, more than 90% of the cells are CD34+.
At the end of the culture period at D12, the cells are labelled with the anti-CD1a, CD14, Lag, E-cadherin, DR and DQ antibodies so as to identify the Langerhans cells which are Lag+, CD1a+, CD14−, DR+ and DQ+.

[1] = system: dendritic cells derived from human monocytes; assay: Effect of LCOS 1013 on maturation of dendritic cells derived from human monocytes, phenotype by flow cytometry (Examples 11, 12)
Excerpt: The purified monocytes (more than 90%) were placed in culture in RPMI medium containing 10% AB human serum in the presence of growth factors GM-CSF (200 U/ml) and IL-4 (500 U/ml) for 6 days in order to induce the differentiation of the monocytes into immature dendritic cells.
The phenotype of the cells thus generated (after 8 days of culture) was examined by flow cytometry. The expression of the marker specific for maturation of the dendritic cells (CD83), of the co-stimulatory molecules CD80, CD86, CD40, of the adhesion molecule CD54, of the class II HLA-DR molecule of the major histocompatibility complex was analyzed. The expression of the CD1a molecule, specific marker of the Langerhans cells, immature dendritic cells, was also tested.

[2] = system: human hematopoietic CD34+ stem cells; assay: Production of dendritic cells from human hematopoietic CD34+ stem cells, cell markers (Example 2); details: TNF-α 2.5 ng/ml or RU 41740 6.25 ng/ml from D0 to D5
Experimental: Purification: After Ficoll, the CD34+ represented 4.2% of the mononucleated cells (MNC).
After purification by positive selection with the MAC System procedure (Miltenyi Biotec) with beads coated with an anti-CD34 antibody, 90% of the cells are CD34+.
Culture Medium: RPMI containing 10% of FCS, 2% of penicillin/streptomycin, 1% of glutamine and 1% of sodium bicarbonate.
Culture in 2 ml wells with 5×10^5 cells per well. from D0 to D5: […] at 25 ng/ml, GM-CSF at 100 ng/ml and either TNF-α at 2.5 ng/ml […]
from D5 to D14: GM-CSF at 100 ng/ml
Duplication of the Cultures: -the cells are homogenized in the well, then 1 ml sample is taken and deposited in a fresh well. 1 ml of culture medium is then added to the fresh well and the old one, as well as GM-CSF as a function of the medium added.
A fluorescence-labelled anti-KLH primary antibody was used as control in order to be able to subtract the non-specific fluorescence of the signals obtained.

[3] = Donor 1, TNF-α 200 U/ml or LCOS 1013 25 μg/ml for 48 hours
[4] = Donor 2, TNF-α 200 U/ml or LCOS 1013 25 μg/ml for 48 hours
[5] = Donor 3, TNF-α 200 U/ml or LCOS 1013 25 μg/ml for 48 hours
[6] = Example 12, single donor, TNF-α 200 U/ml

Substance: TNF-α
- CD1a+ DR+ cells (Langerhans cells): 8%
- Lag+ DR+ cells (Langerhans cells): 5.2%
- CD1a, MFI [1, 3]: 28
- CD1a, percentage of expression [1, 3]: 13.2%
- CD40, MFI [1, 3]: (1084)
- CD40, percentage of expression [1, 3]: 99.4%
- CD54, MFI [1, 3]: (195)
- CD54, percentage of expression [1, 3]: 98.4%
- CD80, MFI [1, 3]: (85)
- CD80, percentage of expression [1, 3]: 69.7%
- CD83, MFI [1, 3]: (132)
- CD83, percentage of expression [1, 3]: 91%
- CD86, MFI [1, 3]: (209)
- CD86, percentage of expression [1, 3]: 99.5%
- HLA-DR, MFI [1, 3]: (803)
- HLA-DR, percentage of expression [1, 3]: 99.5%
- CD1a, MFI [1, 4]: 215
- CD1a, percentage of expression [1, 4]: 20.6%
- CD40, MFI [1, 4]: (1104)
- CD40, percentage of expression [1, 4]: 99.2%
- CD54, MFI [1, 4]: (355)
- CD54, percentage of expression [1, 4]: 97.8%
- CD80, MFI [1, 4]: (89)
- CD80, percentage of expression [1, 4]: 55.1%
- CD83, MFI [1, 4]: (221)
- CD83, percentage of expression [1, 4]: 88%
- CD86, MFI [1, 4]: (299)
- CD86, percentage of expression [1, 4]: 99.1%
- HLA-DR, MFI [1, 4]: (1108)
- HLA-DR, percentage of expression [1, 4]: 98.6%
- CD1a, expression [1, 5]: Neg.
- CD40, MFI [1, 5]: (918)
- CD40, percentage of expression [1, 5]: 98.7%
- CD54, MFI [1, 5]: (154)
- CD54, percentage of expression [1, 5]: 95.9%
- CD80, MFI [1, 5]: (65)
- CD80, percentage of expression [1, 5]: 48.7%
- CD83, MFI [1, 5]: (108)
- CD83, percentage of expression [1, 5]: 91.8%
- CD86, MFI [1, 5]: (209)
- CD86, percentage of expression [1, 5]: 98.5%
- HLA-DR, MFI [1, 5]: (768)
- HLA-DR, percentage of expression [1, 5]: 98.9%
- CD40, percentage of expression [1, 6]: 83.44%
- CD40, second line of cell (MFI) [1, 6]: 289.54
- CD54, percentage of expression [1, 6]: 87.12%
- CD54, second line of cell (MFI) [1, 6]: 137.49
- CD80, percentage of expression [1, 6]: 0.49%
- CD80, second line of cell (MFI) [1, 6]: 95.04
- CD83, percentage of expression [1, 6]: 70.02%
- CD83, second line of cell (MFI) [1, 6]: 65.55
- CD86, percentage of expression [1, 6]: 94.44%
- CD86, second line of cell (MFI) [1, 6]: 180.81
- HLA-DR, percentage of expression [1, 6]: 92.12%
- HLA-DR, second line of cell (MFI) [1, 6]: 877.54
- CD1a, percentage of cells expressing the marker ([2]; D8): 8.7%
- CD14, percentage of cells expressing the marker ([2]; D8): 40%
- CD34, percentage of cells expressing the marker ([2]; D8): 0.7%
- CD40, percentage of cells expressing the marker ([2]; D8): 44%
- CD45, percentage of cells expressing the marker ([2]; D8): 96%
- CD54, percentage of cells expressing the marker ([2]; D8): 33%
- CD83, percentage of cells expressing the marker ([2]; D8): 0.5%
- CD86, percentage of cells expressing the marker ([2]; D8): 13%
- HLA-DR, percentage of cells expressing the marker ([2]; D8): 88%
- CD1a, percentage of cells expressing the marker ([2]; D12): 8.4%
- CD14, percentage of cells expressing the marker ([2]; D12): 63.2%
- CD40, percentage of cells expressing the marker ([2]; D12): 64.3%
- CD54, percentage of cells expressing the marker ([2]; D12): 61.8%
- CD80, percentage of cells expressing the marker ([2]; D12): 5.3%
- CD83, percentage of cells expressing the marker ([2]; D12): 1.3%
- CD86, percentage of cells expressing the marker ([2]; D12): 7.4%
- HLA-DQ, percentage of cells expressing the marker ([2]; D12): 54.1%
- HLA-DR, percentage of cells expressing the marker ([2]; D12): 80.3%
- CD1a, percentage of cells expressing the marker ([2]; D14): 10.3%
- CD14, percentage of cells expressing the marker ([2]; D14): 54.1%
- CD83, percentage of cells expressing the marker ([2]; D14): 0.8%
- CD86, percentage of cells expressing the marker ([2]; D14): 2.2%
- HLA-DR, percentage of cells expressing the marker ([2]; D14): 69.9%
